Experimental data as given in US7671047B2, “Cationically substituted diphenylazetidinones, process for their preparation, medicaments comprising these compounds, and their use” (Sanofi-Aventis Deutschland GmbH, priority 2002, dated 2010).

What follows are compounds tested on uptake of 14C-cholesterol by the liver (cholesterol absorption) (assay: Cholesterol absorption test: uptake of 14C-cholesterol by the liver after peroral test meal). Settings: dose at which uptake of 14C-cholesterol by the liver was halved (50%) vs control group; test substance given perorally immediately prior to test meal; mouse.
Assay type: in vivo, NMRI mice
Description: Effect of the Compounds of the Invention on Cholesterol Absorption and ^3H-taurocholic Acid Excretion Using Fecal Excrement of Mice, Rats or Hamsters
NMRI mice, Wistar rats, or Golden Syrian hamsters (in groups of n=4-6) were kept in metabolic cages, where they were fed with a standard diet (Altromin, Lage (Lippe)). The afternoon prior to the administration of the radioactive tracers (^14C-cholesterol), the feed was removed and the animals were adapted to grates.
Additionally, the animals were labeled s.c. with ^3H-TCA (taurocholic acid) (for example 1 μCi/mouse up to 5 μCi/rat) 24 hours prior to the peroral administration of the test meal (^14C-cholesterol in Intralipid® 20, Pharmacia-Upjohn).
Cholesterol absorption test: 0.25 ml/mouse Intralipid® 20 (Pharmacia-Upjohn) ((spiked with 0.25 μCi of ^14C-cholesterol in 0.1 mg of cholesterol) was administered perorally by gavage.
Test substances were prepared separately in 0.5% methylcellulose (Sigma)/5% Solutol (BASF, Ludwigshafen) or a suitable vehicle.
The administration volume of the test substance was 0.5 ml/mouse. The test substance was administered immediately prior to the test meal (Intralipid labeled with ^14C-cholesterol) (cholesterol absorption test).
The feces were collected over a period of 24 h: fecal elimination of ^14C-cholesterol and ^3H-taurocholic acid (TCA) was determined after 24 hours.
The livers were removed and homogenized, and aliquots were incinerated in an oximate (Model 307, Packard) to determine the amount of ^14C-cholesterol which had been taken up/absorbed.
The amount of ^14C-cholesterol taken up by the liver was based on the administered dose. The ED50 values were interpolated from a dose-effect curve as the dose at which the uptake of ^14C-cholesterol by the liver was halved (50%), based on a control group.

Row | SMILES | ED50 (liver)
1 | N=C(N)c1ccc(C2C(CCC(O)c3ccc(F)cc3)C(=O)N2c2ccc(F)cc2)cc1 (centres unmarked) [II, 4-{1-(4-Fluorophenyl)-3-[3-(4-fluorophenyl)-3-hydroxypropyl]-4-oxoazetidin-2-yl}benzamidine] | 0.1 mg/mouse
2 | O=C(CCCCC[N+]12CCN(CC1)CC2)NCc1ccc(C2C(CCC(O)c3ccc(F)cc3)C(=O)N2c2ccc(F)cc2)cc1.O=C([O-])C(F)(F)F (centres unmarked) [VII] | 0.1 mg/mouse
3 | O=C(CCCCCCCCCCC[N+]12CCN(CC1)CC2)NCc1ccc(C2C(CCC(O)c3ccc(F)cc3)C(=O)N2c2ccc(F)cc2)cc1.O=C([O-])C(F)(F)F (centres unmarked) [IX, 1-[11-(4-{1-(4-Fluorophenyl)-3-[3-(4-fluorophenyl)-3-hydroxypropyl]-4-oxoazetidin-2-yl}benzylcarbamoyl)undecyl]-4-aza-1-azoniabicyclo[2.2.2]octane trifluoroacetate] | 0.1 mg/mouse
4 | COc1ccc(C2C(CCC(O)c3ccc(F)cc3)C(=O)N2c2ccc(CNC(=O)CCCCCCCCCCC[N+]34CCN(CC3)CC4)cc2)cc1.O=C([O-])C(F)(F)F (centres unmarked) [XI, 1-[11-{4-[3-[3-(4-Fluorophenyl)-3-hydroxypropyl]-2-(4-methoxyphenyl)-4-oxoazetidin-1-yl]benzylcarbamoyl}undecyl)-4-aza-1-azoniabicyclo[2.2.2]octane trifluoroacetate] | 0.3 mg/mouse
5 | O=C(CCCCCCCCCCC[N+]12CCN(CC1)CC2)NCc1ccc(N2C(=O)C(CCC(O)c3ccccc3)C2c2ccccc2)cc1.O=C([O-])C(F)(F)F (centres unmarked) [X, 1-[11-{4-[3-(3-Hydroxy-3-phenylpropyl)-2-oxo-4-phenylazetidin-1-yl]benzylcarbamoyl}undecyl)-4-aza-1-azoniabicyclo[2.2.2]octane trifluoroacetate] | <1.0 mg/mouse
